Experiments:
[1] = test system: K562 PU.1 OE cells (A2 and H8); assay: cell viability assay (WST-8), percentages of dead cells after drug administration, PU.1 gene-overexpressing cells vs control cells; type: cell-based
Excerpt: FIGS. 3(a) and 3(b) illustrate and show the results of establishment experiments of PU.1-overexpressing cell lines (K562 PU.1 OE cells). That is, the PU.1 expression vector described in the literature was used (Inomata et al., Leukemia Research 30 (2006) p 659-664). The expression vector and its control vector pcDNA3.1 (Invitrogen, CA) were introduced into K562 cells as leukemia cell lines in accordance with the method described in literature (Takahashi S et al., British Journal of Haematology, 2005 (130), p 428-436). The introduced cells were cultured in an RPMI medium in the presence of 400 μg/mL Neomycin to select cells that constitutively express PU.1 and isolate the cells by a limiting dilution method. […]
Two kinds of PU.1 gene-knockdown cells (PU 2-10 and PU 3-10) and control cells (vec 5 and vec 6) were compared for their sensitivities to 5-azadc (AZA) (% effect: percentages of dead cells after drug administration). […] In the assays, 10 μL of a WST-8 reagent (Dojindo, Japan) were added to a well in which 100 μL of a cell culture medium had been loaded, culture was performed in a 5% CO2 incubator at 37° C. for 2 hours, and the absorbance is then measured using a microplate reader at a wavelength of 490 nm, to thereby measure cell viability. […]

[2] = test system: K562 PU.1 KD cells (PU 2-10 and PU 3-10); assay: cell viability assay (WST-8), percentages of dead cells after drug administration, PU.1 gene-knockdown cells vs control cells; type: cell-based; settings: for drug sensitivity of PU.1 gene-knockdown cells to the DNA methylation inhibitor: K562 PU.1 KD cells
Excerpt: FIGS. 1(a) and 1(b) illustrate and show the results of establishment experiments of PU.1-knockdown lines (K562 PU.1 KD cells). That is, a PU.1 siRNA expression vector (Takara, Ohtsu, Japan) and its control vector (Takara) were introduced into K562 cells as leukemia cell lines in accordance with the method described in the document (Takahashi Set al., British Journal of Haematology, 2005 (130), p 428-436). Specifically, in the method, electroporation was employed to introduce the expression vector and its control vector into leukemia cell lines (K562 cells). The introduced cells were cultured in an RPMI medium in the presence of 1 μg/mL puromycin to select cells that constitutively express PU.1 siRNAs and isolate the cells by a limiting dilution method. The isolated control cells (Control K562) (V5 and V6) and PU.1-knockdown cells (2-10 and 3-10) (K562 PU.1 KD cells) were used to prepare proteins based on a conventional method. The proteins were subjected to SDS-PAGE electrophoresis, then transferred to a membrane, and blotted with a PU.1 antibody and β-actin useful for the estimation of protein amounts (FIG. 1(a)).
Two kinds of PU.1 gene-knockdown cells (PU 2-10 and PU 3-10) and control cells (vec 5 and vec 6) were compared for their sensitivities to 5-azadc (AZA) (% effect: percentages of dead cells after drug administration). In other words, the respective cells were seeded in a 96-well plate at a density of 2,000 cells/well, and 5-azadc (AZA) was added into the well at concentrations of 0.2, 1, 3.9, 15.6, 62.5, 250, and 1,000 nM. Then, cell viability assays were performed after 96 hours. In the assays, 10 μL of a WST-8 reagent (Dojindo, Japan) were added to a well in which 100 μL of a cell culture medium had been loaded, culture was performed in a 5% CO2 incubator at 37° C. for 2 hours, and the absorbance is then measured using a microplate reader at a wavelength of 490 nm, to thereby measure cell viability. FIG. 7 illustrates the results in terms of percentages of dead cells (% effect).

Nc1ncn([C@H]2C[C@H](O)[C@@H](CO)O2)c(=O)n1 [5-azadc, 5-aza-2′-deoxycytidine]
percentages of dead cells (% effect): higher than in control cells (vec 1 and vec 2) by ([1]; A2 and H8, same experiment as FIG. 7 (0.2-1,000 nM, 96 hours), FIG. 8): about 20% | drug sensitivity of PU.1 gene-overexpressing cells to the DNA methylation inhibitor ([1]; K562 PU.1 OE cells): highly sensitive | drug sensitivity of PU.1 gene-knockdown cells to the DNA methylation inhibitor [2]: resistant and poorly sensitive | drug sensitivity of PU.1 gene-knockdown cells to the DNA methylation inhibitor ([2]; listed as 5-aza-2′-deoxycytidine): resistant | percentages of dead cells (% effect): lower than in control cells (vec 5 and vec 6) by ([2]; PU 2-10 and PU 3-10, 0.2-1,000 nM, 96 hours, FIG. 7): about 20%

Nc1ncn([C@@H]2O[C@H](CO)[C@@H](O)[C@H]2O)c(=O)n1 [5-azacytidine]
drug sensitivity of PU.1 gene-knockdown cells to the DNA methylation inhibitor [2]: resistant
